Assay results taken from patent US11235020B2, “Methods and compositions for inhibiting glyoxalase 1 (GLO1)” (priority 2013, dated 2022).

What was measured:
[1] = system: anxiety-like behavior and locomotion in mice; experiment: Open field (OF) test; format: in vivo, mouse
Method: OF test: Mice were placed into the center of the OF, and activity was monitored for five to ten minutes. The apparatus was illuminated to approximately 40 lux. Data were collected and processed using the manufacturer's software (AccuScan Instruments).
OF test: Ten minutes post-injection, mice were placed into the center of the OF. The apparatus was illuminated to approximately 40 lux. Behavior was measured as described above.
OF test replication studies: Ten to twenty minutes post-injection, mice were tested in the OF for five to ten minutes. In some experiments, behavior was scored as described above. In other experiments, mice were tested in the OF, and behavior was automatically scored by the Noldus Ethovision System. For mice tested in the Noldus system, the apparatus was illuminated to approximately 1,000 lux.
Chronic MG administration: For five days, mice were injected twice daily with vehicle or MG (4 mg/kg). Twelve hours after the final injection, mice were tested in the OF as described above.
Pure MG: Pure MG was obtained from Dr. John Termini at the City of Hope, Duarte, Calif. It was administered at the indicated doses by i.p. injection. Mice were tested as described above.
OF test: Two hours post-injection, mice were tested in the OF test as described above. The center size was 10×10 cm. The apparatus was illuminated to approximately 40 lux.

[2] = system: pilocarpine-induced seizures; experiment: Pilocarpine-induced seizures; format: in vivo, mouse
Method: Drug administration: All experiments with MG utilized crude MG obtained from Sigma-Aldrich. For pre-treatment, MG (50 or 200 mg/kg) or vehicle (0.9% saline) was administered by i.p. injection 10 minutes before the seizure-inducing agent. For treatment after seizure onset, MG (200 mg/kg) or vehicle (0.9% saline) was administered by i.p. injection ten minutes after seizure onset. For GLO1 inhibition, BrBzGCp2 (50 mg/kg) or vehicle (8% DMSO and 18% Tween-80) was administered by i.p. injection two hours before seizure induction.
Seizure induction: For picrotoxin-induced seizures, 5 mg/kg of picrotoxin in 0.9% saline was administered by i.p. injection. Seizures were scored for one hour after picrotoxin administration. For pilocarpine-induced seizures, mice were pre-treated with atropine (5 mg/kg in 0.9% saline) by i.p. injection in order to reduce the peripheral effects of pilocarpine. Thirty minutes after atropine administration, pilocarpine was administered by i.p. injection. B6 mice were treated with 250 mg/kg pilocarpine in 0.9% saline, and FVB mice (WT and Tg) were treated with 300 mg/kg pilocarpine in 0.9% saline. Seizures were scored for 90 minutes after pilocarpine administration.
Pilocarpine-induced seizures were scored as previously reported (Winawer 2011):
Stage 1: Immobility/Lying Low
Stage 2: Partial (limbic) seizures. Non-continuous twitching/tremor/shaking of tail/head/body/limbs, forelimb and/or tail extension, rigid posture, repetitive movements, head bobbing
Stage 3: Partial status epilepticus. Continuous tremor/clonic seizures of body and tail while retaining posture
Stage 4: Generalized seizures. Rearing/hyperexcitability/running/falling, tonic extension/clonic seizures with loss of posture
Stage 5: Generalized status epilepticus (continuous stage 4 seizures) resulting in death

[3] = system: depression-like behavior in mice; experiment: Chronic forced swim test (cFST), osmotic minipump; format: in vivo, mouse; details: 14 days
Method: To fully assess the therapeutic potential of GLO1 inhibitors, it is necessary to utilize behavioral models sensitive to chronic administration. These models are highly informative as the therapeutic onset of antidepressant action mimics clinical onset in humans. pBBG was administered by osmotic minipumps (Alzet) for 14 days at various doses (0, 5, 10, 15, 30 and 60 mg/kg/day) to establish a dose response curve. Osmotic minipumps are ideal for chronic treatment as they release a constant volume at a very slow rate minimizing the stress of multiple injections.

GLO1 = target: T1, GLO1 (Mus musculus, UniProt Q9CPU0); experiment: HPLC measurement of MG concentration in whole brain after i.p. BrBzGCp2; format: in vivo; details: BrBzGCp2 30 mg/kg i.p., two hours
T1 construct: from tissue; host or cells: whole brain of WT C57BL/6J mice, in vivo dosing
Method: MG concentration was measured by HPLC as previously described with modifications (Dhar 2009). Tissue was homogenized in 50 mM sodium phosphate buffer (pH 6.6) and 0.8N perchloric acid. It was then incubated on ice for 10 minutes and centrifuged. The supernatant was filtered, and MG was derivatized with 10 mM o-phenylenediamine to form 2-methylquinoxaline (2-MQ). 5-methylquinoxaline (5-MQ, 15 μM) was spiked into each sample as an internal standard. 2-MQ was quantified using an HP 1100 HPLC system (Agilent) with a Nova-Pak C18 column (Waters Corporation). Column effluent was monitored at 315 nm. 2-MQ concentration was determined by comparison to 2-MQ standards of known mass. Quantification of 2-MQ was corrected for losses by comparison with 5-MQ. MG concentration was calculated as 2-MQ/tissue weight.
Treatment: BrBzGCp2 was dissolved in vehicle (8% DMSO and 18% Tween-80). Mice were treated i.p. with 10 ml/kg BrBzGCp2 or vehicle.
HPLC: 2 hours post-injection, mice were sacrificed, and brains were rapidly dissected and flash-frozen on dry ice. MG concentration was measured as described above.

[4] = system: depression-like behavior in mice; experiment: Tail suspension test (TST); format: in vivo, mouse; details: pBBG pretreatment
Method: Mice were suspended by their tails using adhesive tape attached to a bar elevated approximately 46 cm above a table. The apparatus was illuminated to approximately 1,000 lux. Mice were tested individually, and time spent immobile was scored manually for six minutes. For MG studies, mice were treated with vehicle (0.9% saline) or crude MG (Sigma-Aldrich, 50 mg/kg) by i.p. injection ten minutes before the test. Behavior was scored for five minutes.

[5] = system: anxiety-like behavior and locomotion in mice; experiment: Open field (OF) test; format: in vivo, mouse; details: 14 days
[6] = system: depression-like behavior in mice; experiment: Forced swim test (FST), acute treatment; format: in vivo, mouse; details: pBBG 50 mg/kg i.p., two hours later; C57BL/6J, FVB/nJ and BALB/cJ mice
Method: The forced swim test (FST) is a highly reliable screen used to predict antidepressant efficacy after acute antidepressant treatments (Petit-Demouliere, Chenu & Bourin 2005). The FST relies on the phenomenon that relative to no treatment, mice receiving treatment with antidepressants will spend more time performing escape-oriented behaviors than immobile postures. […] Mice on three genetic backgrounds (C57BL/6J, FVB/nJ and BALB/cJ) were treated with 50 mg/kg pBBG (i.p.) and assessed depression-like behavior in the FST two hours later.

mice [7] = experiment: Signs of toxicity after chronic administration; format: in vivo; details: chronic pBBG by osmotic minipump
Method: (A) Chronic (14 day) treatment by osmotic minipump with 5 or 10 mg/kg/day pBBG reduced immobility in the FST, establishing that chronic administration has antidepressant effects.

mice [8] = experiment: Observation of sedation or gross deficits in treated mice; details: mice treated with BrBzGCp2
purified human GLO1 = purified human GLO1 (Homo sapiens, UniProt Q04760); experiment: GLO1 enzymatic activity assay with purified protein; format: biochemical; details: 100 μM BrBzGCp2, 10 ng purified GLO1
Method: GLO1 activity was assayed by measuring the rate of formation of S-d-lactoylglutathione (Allen 1993).
Purified protein: 100 ng of purified protein was added to a hemithioacetal substrate, and enzymatic activity was measure as described above.
Enzymatic activity: Vehicle (DMSO) or 100 μM BrBzGCp2 was added to 10 ng of purified human GLO1. Enzymatic activity was measured as described above.

[9] = BrBzGCp2 30 mg/kg i.p., B6 mice, two hours post-injection

T1 sequence (Q9CPU0 2-184 limits assumed): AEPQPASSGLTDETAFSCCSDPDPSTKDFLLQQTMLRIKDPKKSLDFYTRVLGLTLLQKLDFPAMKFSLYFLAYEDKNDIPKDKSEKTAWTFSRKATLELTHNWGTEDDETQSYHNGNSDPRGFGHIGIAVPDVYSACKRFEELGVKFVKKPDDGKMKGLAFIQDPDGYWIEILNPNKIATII
Chain of purified human GLO1 (Q04760 whole entry): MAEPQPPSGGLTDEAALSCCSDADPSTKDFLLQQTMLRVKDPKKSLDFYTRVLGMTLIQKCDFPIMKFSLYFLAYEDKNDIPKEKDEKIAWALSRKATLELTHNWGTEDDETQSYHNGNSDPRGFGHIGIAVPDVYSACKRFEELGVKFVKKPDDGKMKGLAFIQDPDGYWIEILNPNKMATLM

N[C@@H](CCC(=O)N[C@@H](CSCc1ccc(Br)cc1)C(=O)NCC(=O)OC1CCCC1)C(=O)OC1CCCC1 [BrBzGCp2, S-bromobenzylglutathione cyclopentyl diester]
center time in the OF test [1, 9]: increased center time in the OF test | distance traveled in the OF test [1, 9]: without changing distance traveled | anxiogenic effect of the Glo1 duplication in the OF ([1]; BrBzGCp2 50 mg/kg i.p., CD-1 mice with Glo1 duplication): reversed this effect | center time in the OF ([1]; BrBzGCp2 50 mg/kg i.p., CD-1 mice, two hours post-injection): increased center time in the OF | seizure stage ([2]; BrBzGCp2 50 mg/kg i.p. two hours before pilocarpine): did not affect seizure stage | seizure duration (time in stage 3) ([2]; BrBzGCp2 50 mg/kg i.p. two hours before pilocarpine 250 mg/kg): reduced seizure durations | seizure latency ([2]; BrBzGCp2 50 mg/kg i.p. two hours before pilocarpine, data not shown): did not significantly affect seizure latency | immobility in the FST compared with fluoxetine ([3]; pBBG 5 mg/kg/day): reduced immobility in the FST to a similar extent as a selective serotonin reuptake inhibitor | immobility in the FST after chronic treatment ([3]; pBBG 5 or 10 mg/kg/day): reduce immobility in the FST | immobility in the FST after chronic treatment ([3]; pBBG 30, 60 mg/kg/day): increased immobility in the FST | increase of MG concentration in the brain (GLO1): approximately 20% | immobility on the TST ([4]; C57BL/6J (B6) mice): decreased immobility on the TST | immobility on the TST ([4]; FVB/NJ mice): decreased immobility on the TST | total distance traveled in the OFT ([5]; pBBG 5, 10, or 15 mg/kg/day): had no effect on total distance traveled in the OFT | total distance traveled in the OFT ([5]; pBBG 15, 30 or 60 mg/kg/day): also had no effect on total distance traveled | immobility in the FST [6]: reduced immobility in all strains | signs of toxicity following chronic administration (mice [7]): none were observed | sedation or gross deficits (mice [8]): did not display sedation or gross deficits | GLO1 enzymatic activity (purified human GLO1): inhibit GLO1 enzymatic activity in vitro
